Laboratory results: patent US20240182475A1 (Université de Lausanne, priority 2021, published 2024)

Tests used:
MOVAS cells [1] = assay: MOVAS cell calcification assay (Alizarin red); assay type: cell-based, mouse
Protocol: A) Alizarin red staining of MOVAS cells stimulated with sCPP for 24 h in DMEM+10% FBS and treated or not with 50 uM of compounds. […] Statistical analysis was determined using one-way ANOVA with ***p<0.001. C) Percentage of cytotoxicity (LDH %) in MOVAS treated or not with compounds for 24 h. D) MOVAS cells were seeded onto half-area 96-well plate and incubated overnight. Then C5 or C6 at 50 uM or vehicle (DMSO), L-cysteine at 10 mM, PLP at 5 uM and the H2S sensitive fluorescent probe AzMC at 10 μM were added. The fluorescence was immediately measured in kinetic mode for 2 h at 37° C. with SpectraMax M5 reader, with excitation and emission wavelengths of 365 nm and 450 nm, respectively.
A) Alizarin red staining of Movas cells stimulated with sCPP for 24 h in DMEM+10% FBS and treated or not with 50 uM of Z20. […] C) Percentage of cytotoxicity (LDH %) in murine chondrocytes treated or not with Z20 for 24 h. Statistical analysis was determined using one-way ANOVA with ***p<0.001.
Alizarin red staining of MOVAS cells stimulated with sCPP for 24 h in DMEM+10% FBS and treated or not with different concentrations of compounds (A: C6) and (B: Z20). The graphs show Alizarin red absorbance at 570-630 nm. Statistical analysis was determined using one-way ANOVA with *p<0.05, **p<0.01, ***p<0.001.
CPP were generated by preparing 20 ml DMEM containing 10% FBS, 1 mmol/L CaCl2, 3.5 mmol/L inorganic phosphate (1.36 mmol/L NaH2PO4 and 2.14 mmol/L Na2HPO4) (Aghagolzadeh et al. Atherosclerosis, 2016). After 7 days incubation at 37° C., the suspension was centrifuged at 25000 g for 2 h at 4° C., and the pellet containing CPP was resuspended in 1 ml DMEM and stored at −20° C. until further use.
Mouse vascular smooth muscle cell line (MOVAS) cells were cultured according to the manufacturer's guidelines in DMEM culture medium supplemented with 10% FBS. Cells were cultured at 37° C. in a humidified atmosphere with 5% CO2. All cell culture experiments in 96-well plates were performed in triplicates and were repeated independently two times.
For calcification experiments, cells were seeded in 96-well plates at a density of 50,000 cells/well and left to attach for 18 h. Calcification of cell monolayers was induced by CPP (equivalent to 50 μg Ca/mL) for 24 h at 37° C., 5% CO2 in presence of various concentrations of compounds (all in final 0.1% DMSO), or of 0.1% DMSO as a control, to reach a final volume of 200 μl/well. Calcium deposition was assessed by 0.5% w/v Alizarin Red staining (pH 4.2). Briefly, after PBS washing, methanol fixation for 10 min at 4° C., and milli-Q water washing, cells were incubated for 60 min with 200 μL Alizarin Red solution and then washed four times with milli-Q water. Quantification was performed after crystal dissolution with cetylpyridinium chloride (10%) for 18 h. The absorbance was measured at 570 and 630 nm using the Spectramax M5e reader (Molecular Devices). The background (alizarin red staining obtained with cells in the absence of CPP) was subtracted from all values.

MOVAS cells [2] = assay: Cytotoxicity assay, LDH release; assay type: cell-based, mouse; conditions: at 50 uM
Protocol: A) Alizarin red staining of MOVAS cells stimulated with CPP for 24 h in DMEM+10% FBS in presence of different concentrations of compound 22401. […] The background (Alizarin red staining obtained with cells in the absence of CPP) was subtracted from all values. B) Percentage of cytotoxicity, as measured by LDH release, in MOVAS cells in the same conditions as A). Statistical analysis was determined using one-way ANOVA with *p<0.05, **p<0.01, ***p<0.001.
Measurement of lactate dehydrogenase (LDH) as a means of cytotoxicity assay was performed with using CytoTox-ONE Homogeneous Membrane Integrity Assay (Promega) according to the manufacturer's instructions. Values were calculated as percentage of cytotoxicity using the following formula: [(value in sample)−(background)]/[(value in Triton X-100-treated sample)−(background)]×100.

[3] = tested on: WT murine primary chondrocytes; assay: Murine primary chondrocyte calcification (Alizarin red); assay type: cell-based, mouse; conditions: sCPP 24 h, DMEM+10% FBS, 50 uM
Protocol: (a) WT and Cse-deficient chondrocytes were incubated with a CSE activator (SU004, 50 μM) previously identified by high-through put screen, or with the equivalent volume of DMSO (0.1%) for 24 hours in calcification medium. STS 25 mM was used as a positive control for calcification inhibition. Calcium-containing crystals were stained with Alizarin red and quantified. (b) Cytotoxicity was assessed by LDH measurement and expressed as % over 100% cytotoxicity. (c) IL-6 secretion was measured by ELISA in supernatant of WT chondrocytes incubated with SU004 50 μM or STS 25 mM for 24 hours in calcification medium. (d) Primary human chondrocytes from 3 OA patients (P1, P2, P3) were incubated with SU004 50 μM, or with the equivalent volume of DMSO (0.1%) for 24 hours in calcification medium. Calcium-containing crystals were stained with Alizarin red and quantified. (e) Cytotoxicity was assessed by LDH measurement and expressed as % over 100% cytotoxicity. (f) IL-6 secretion was measured by ELISA in supernatant of human chondrocytes incubated for 24 hours with SU004 50 μM in calcification medium. *p<0.05, ** p<0.01, ****p<0.0001.
Primary murine chondrocytes were stimulated with secondary calciprotein particles (sCPP) for 24 h in DMEM+10% FBS in presence of C5 or C6 at 50 uM or vehicle (DMSO). Mineralization was analyzed by Alizarin red staining of the cells (A) and quantified (B). Statistical analysis was determined using one-way ANOVA with **p<0.01 and ***p<0.001.
Chondrocytes were isolated from 6 days old mice (Cse KO, Cse tg, Cbs KO and corresponding WT mice) as described previously (Nasi, So, et al. 2016). Tenocytes were isolated from 6 to 8 weeks old mice (Cse KO and WT) and by double digestion in Collagenase IV NB standard grade (Witec AG). […]
After incubation in calcification media, supernatant was collected for ELISA and LDH measurement, and cell monolayer was washed in PBS, fixed in 10% formol and crystal deposition analyzed through Alizarin red staining and quantified as previously described

ATDCS chondrocytes = assay: ATDCS chondrocyte mineralization (Alizarin red); assay type: cell-based; conditions: sCPP 24 h, different concentrations
Protocol: Alizarin red staining of ATDCS chondrocytes stimulated with sCPP for 24 h in DMEM+10% FBS in presence of different concentrations of compounds C5 and C6. The graphs show Alizarin red absorbance at 570-630 nm. Statistical analysis (in comparison to 0) was determined using one-way ANOVA with *p<0.05, **p<0.01, ***p<0.001, […].

N-{1-[(pyridin-2-yl)methyl]-1H-pyrazol-4-yl}benzamide [Compound 12]
Calcification assay Max calcification inhibition (%) at the indicated dose of compound (uM) (MOVAS cells [1]; at 50 uM): 43% at | Mineralization (Alizarin red) (MOVAS cells [1]; sCPP 24 h, 50 uM): inhibit murine vascular smooth muscle cells (MOVAS cells) mineralization | Mineralization (Alizarin red absorbance 570-630 nm) (MOVAS cells [1]; sCPP 24 h, different concentrations): Dose-dependent effect | Cytotoxicity assay LDH release (% of cytotoxicity) (MOVAS cells [2]): 13% at | Mineralization (Alizarin red) [3]: inhibit primary murine chondrocyte mineralization | Mineralization (Alizarin red absorbance 570-630 nm) (ATDCS chondrocytes): inhibit ATDCS mineralization in vitro in a dose dependent fashion
